{"source": "patent US6544533B2", "about": "“10-hydroxy-2-decenoic acid compounds for promoting desquamation/epidermal renewal of the skin and/or combating skin aging” (Societe L'Oreal S.A., priority 1998, dated 2003)"}
{"tested_on": "differentiated human keratinocytes", "test": "in vitro screening of desquamating activity: release of corneocytes (cellular detachment index) counted by flow cytometry", "type": "cell-based", "settings": "compounds at 5·10^−5 M, 60 minutes after addition", "experimental": "This test of in vitro screening of an agent which is active with regard to desquamation was carried out on differentiated human keratinocytes. The principle of the test is based on the fact that desquamation induces the release of corneocytes. The desquamating power of the test product increases as the number of corneocytes released increases.\nThe protocol of the test was as follows: beginning with biopsies of human skin, the keratinocytes obtained by separation from the epidermis were dissociated by enzymatic action with trypsin and were cultured at a concentration of 2·10^5 cell/ml. The growth and differentiation of the keratinocytes was obtained by culturing for 10 to 20 days in a specific medium. The activity of the test product was then evaluated after removal of the culture medium. To accomplish this, two samples were taken at T0 and T60, namely, before the addition of the test product and 60 minutes after this addition. The samples thus taken were analyzed with a flow cytometer in order to count the population of corneocytes. The flow cytometer made it possible to distinguish the populations of corneocytes and of keratinocytes by treatment with acridine orange, which is specific for cellular DNA.\nThe cellular detachment index was determined by the difference between T60 and T0. The same measurement was carried out for a control not comprising test product, because the experiment inevitably produces the release of corneocytes, even in the absence of active principles.\nThe test was carried out with compounds at a concentration of 5·10^−5M.", "units": {"% of activity with respect to the control composed of an identical culture in the absence of compound (cellular detachment index, T60 minus T0)": "%"}}
{"smiles": "COCCOCOCC(COC(=O)/C=C/CCCCCCCO)OC(=O)/C=C/CCCCCCCO", "note": "(stereo not drawn) [3-[(2-methoxyethoxy)methoxy]propyl 1,2-di(10-hydroxydec-2-enoate)]", "% of activity with respect to the control composed of an identical culture in the absence of compound (cellular detachment index, T60 minus T0)": 124.16}
{"smiles": "O=C(/C=C/CCCCCCCO)OCC(COC(=O)/C=C/CCCCCCCO)OC(=O)/C=C/CCCCCCCO", "note": "[Propyl 1,2,3-tri(10-hydroxydec-2-enoate), propyl 1,2,3-tri(10-hydroxydec-2-enoate)]", "% of activity with respect to the control composed of an identical culture in the absence of compound (cellular detachment index, T60 minus T0)": 148.52}
{"smiles": "CCCCCCCC(=O)c1ccc(O)c(C(=O)O)c1", "note": "[Reference, 2-Hydroxy-5-octanoylbenzoic acid, reference compound]", "% of activity with respect to the control composed of an identical culture in the absence of compound (cellular detachment index, T60 minus T0)": 91.95}
